The record followed here is US20240150338A1, “COMPOUNDS AND USE THEREOF FOR TREATMENT OF NEURODEGENERATIVE, DEGENERATIVE AND METABOLIC DISORDERS” (University of Florida Research Foundation, Incorporated, priority 2021, published 2024).

Data set [1] concerns PK1 neuroblastoma cells exposed to TPrP. Kind of data set: cells. The format is cell-based. As to conditions: Neuroblastoma cell, 96 h, read-out: TPrP EC50.
Data set [2] in a line: Microsomal stability assay. The data set is classed as in vitro ADME. Conditions: 1 mg/ml human hepatic microsomes, 37° C., half-life by LC-MS/MS; yes = stability ≥15 minutes. How it is done:
The metabolic stability of some test compounds was determined in hepatic human and mouse microsomes. The compound was incubated with 1 mg/ml human or mouse hepatic microsomes at 37° C. with continuous shaking. Aliquots were removed at various time points between 5 minutes and 2 hours and acetonitrile was added to quench the reactions and precipitate the proteins. Samples were then centrifuged through 0.45 μm filter plates and half-lives were determined by LC-MS/MS.

With `NS(=O)(=O)c1ccc(Nc2nc(-c3ccncc3)c(CO)s2)cc1` [SR-28550, 4-((5-(Hydroxymethyl)-4-(pyridin-4-yl)thiazol-2-yl)amino)benzenesulfonamide], the EC50 in data set [1] stood at 70 nM. For the same molecule, the “Stabilty in human microsomes ≥ 15 minutes” value (shortened to “Stabilty”) in data set [2] is reported as “yes”. In the same order, the values of `Cc1cc(-c2csc(Nc3ccc(S(N)(=O)=O)cc3)n2)ccn1` [SR-33124, 4-((4-(2-Methylpyridin-4-yl)thiazol-2-yl)amino)benzenesulfonamide] are 30 nM and “yes”. The corresponding values for `NS(=O)(=O)c1ccc(Nc2nc(-c3ccnc(Cl)c3)cs2)cc1` [SR-33125, 4-((4-(2-Chloropyridin-4-yl)thiazol-2-yl)amino)benzenesulfonamide] are 35 nM and “yes”. Regarding `Cc1cc(-c2csc(Nc3ccc(S(=O)(=O)O)cc3)n2)ccn1` [SR-33126, 4-((4-(2-Methylpyridin-4-yl)thiazol-2-Yl)amino)benzenesulfonic acid], in data set [1], the 50% effective concentration (EC50) came to 25 nM. Also, the “Stabilty” value in data set [2] was “yes”.

For the molecule `Cc1cc(-c2csc(Nc3ccc(S(C)(=O)=O)c(Cl)c3)n2)ccn1` [SR-33127, N-(3-chloro-4-(methylsulfonyl)phenyl)-4-(2-methylpyridin-4-yl)thiazol-2-amine], in data set [1], the EC50 came to 25 nM. In addition, in data set [2], the “Stabilty” value is listed as “yes”. In the same order, the values of `O=S(=O)(O)c1ccc(Nc2nc(-c3ccnc(Cl)c3)cs2)cc1` [SR-33128, 4-((4-(2-Chloropyridin-4-yl)thiazol-2-yl)amino)benzenesulfonic acid] are greater than 500 nM and “yes”. With `CS(=O)(=O)c1ccc(Nc2nc(-c3ccnc(Cl)c3)cs2)cc1Cl` [SR-33129, N-(3-chloro-4-(methylsulfonyl)phenyl)-4-(2-chloropyridin-4-yl)thiazol-2-amine], in data set [1], the 50% effective concentration (EC50) was found to be 65 nM. Moreover, the “Stabilty” value in data set [2] is reported as “yes”. In the same order, the values of `Cc1cc(-c2nc(Nc3ccc(S(N)(=O)=O)cc3)sc2CO)ccn1` [SR-33524, 4-((5-(Hydroxmethyl)-4-(2-methylpyridin-4-yl)thiazol-2-yl)amino)benzenesulfonamide] are 60 nM and “yes”. Regarding `NS(=O)(=O)c1ccc(Nc2nc(-c3ccnc(Cl)c3)c(CO)s2)cc1` [SR-33525, 4-((4-(2-Chloropyridin-4-yl)-5-(hydroxymethyl)thiazol-2-yl)amino)benzenesulfonamide], the 50% effective concentration (EC50) in data set [1] is 65 nM. For the same molecule, the “Stabilty” value in data set [2] is reported as “yes”. The corresponding values for `Cc1cc(-c2nc(Nc3ccc(S(=O)(=O)O)cc3)sc2CO)ccn1` [SR-33526, 4-((5-(Hydroxymethyl)-4-(2-methylpyridin-4-yl)thiazol-2-yl)amino)benzenesulfonic acid] are 150 nM and “yes”. With `O=S(=O)(O)c1ccc(Nc2nc(-c3ccnc(Cl)c3)c(CO)s2)cc1` [SR-33527, 4-((4-(2-Chloropyridin-4-yl)-5-(hydroxymethyl)thiazol-2-yl)amino)benzenesulfonic acid], the EC50 in data set [1] came to 160 nM. Moreover, the “Stabilty” value in data set [2] is on record as “yes”.

Take `Cc1cc(-c2nc(Nc3ccc(S(C)(=O)=O)c(Cl)c3)sc2CO)ccn1` [SR-33528, (2-((3-Chloro-4-(methylsulfonyl)phenyl)amino)-4-(2-methylpyridin-4-yl)thiazol-5-yl)methanol]: in data set [1], the EC50 stood at 80 nM. Further, the “Stabilty” value in data set [2] was “yes”. In the same order, the values of `CS(=O)(=O)c1ccc(Nc2nc(-c3ccnc(Cl)c3)c(CO)s2)cc1Cl` [SR-33529, (2-((3-Chloro-4-(methylsulfonyl)phenyl)amino)-4-(2-chloropyridin-4-yl)thiazol-5-yl)methanol] are 80 nM and “yes”. The corresponding values for `Cc1cc(-c2csc(Nc3ccc(S(=O)(=O)O)cc3)n2)cc(C)n1` [SR-33784, 4-((4-(2,6-Dimethylpyridin-4-yl)thiazol-2-yl)amino)benzenesulfonic acid] are 25 nM and “yes”.

Take `O=S(=O)(O)c1ccc(Nc2nc(-c3ccncc3)cs2)cc1` [SR-33785, 4-((4-(Pyridin-4-yl)thiazol-2-yl)amino)benzenesulfonic acid]: the EC50 in data set [1] stood at 40 nM. Besides, the “Stabilty” value in data set [2] was “yes”. In the same order, the values of `Cc1cc(-c2csc(Nc3ccc(S(C)(=O)=O)cc3)n2)cc(C)n1` [SR-33786, 4-(2,6-Dimethylpyridin-4-yl)-N-(4-(methylsulfonyl)phenyl)thiazol-2-amine] are 20 nM and “yes”. In the same order, the values of `COc1cc(-c2csc(Nc3ccc(S(C)(=O)=O)c(Cl)c3)n2)cc(OC)n1` [SR-33787, N-(3-chloro-4-(methylsulfonyl)phenyl)-4-(2,6-dimethoxypyridin-4-yl)thiazol-2-amine] are 80 nM and “yes”. As to `CS(=O)(=O)c1ccc(Nc2nc(-c3ccncc3)cs2)cc1` [SR-33788, N-(4-(methylsulfonyl)phenyl)-4-(pyridin-4-yl)thiazol-2-amine], the concentration for a half-maximal effect (EC50) in data set [1] came out at 80 nM. Also, in data set [2], the “Stabilty” value was “yes”.

Consider `COc1cc(-c2csc(Nc3ccc(S(C)(=O)=O)cc3)n2)cc(OC)n1` [SR-33789, 4-(2,6-Dimethoxypyridin-4-yl)-N-(4-(methylsulfonyl)phenyl)thiazol-2-amine], for which the EC50 in data set [1] worked out at 300 nM. Further, the “Stabilty” value in data set [2] is “yes”. For `COc1cc(-c2csc(Nc3ccc(S(N)(=O)=O)cc3)n2)cc(OC)n1` [SR-33790, 4-((4-(2,6-Dimethoxypyridin-4-yl)thiazol-2-yl)amino)benzenesulfonamide], the EC50 in data set [1] is 35 nM. Further, the “Stabilty” value in data set [2] is listed as “yes”.

`Cc1cc(-c2csc(Nc3ccc(S(N)(=O)=O)cc3)n2)cc(C)n1` [SR-33791, 4-((4-(2,6-Dimethylpyridin-4-yl)thiazol-2-yl)amino)benzenesulfonamide]: the EC50 in data set [1] worked out at 25 nM. Also, the “Stabilty” value in data set [2] is given as “yes”. As for `Cc1cc(-c2csc(Nc3ccc(S(C)(=O)=O)cc3)n2)ccn1` [SR-33793, 4-(2-Methylpyridin-4-yl)-N-(4-(methylsulfonyl)phenyl)thiazol-2-amine], the EC50 in data set [1] stood at 20 nM. For the same molecule, the “Stabilty” value in data set [2] is on record as “yes”. The corresponding values for `Cc1cc(-c2nc(Nc3ccc(S(C)(=O)=O)cc3)sc2CO)cc(C)n1` [SR-33794, (4-(2,6-Dimethylpyridin-4-yl)-2-((4-(methylsulfonyl)phenyl)amino)thiazol-5-yl)methanol] are 70 nM and “yes”.

Turning to `CS(=O)(=O)c1ccc(Nc2nc(-c3ccncc3)c(CO)s2)cc1` [SR-33795, (2-((4-(Methylsulfonyl)phenyl)amino)-4-(pyridin-4-yl)thiazol-5-yl)methanol], the EC50 in data set [1] was found to be 350 nM. For the same molecule, in data set [2], the “Stabilty” value is reported as “yes”. The corresponding values for `COc1cc(-c2nc(Nc3ccc(S(C)(=O)=O)cc3)sc2CO)cc(OC)n1` [SR-33796, (4-(2,6-Dimethoxypyridin-4-yl)-2-((4-(methylsulfonyl)phenyl)amino)thiazol-5-yl)methanol] are 450 nM and “yes”. The corresponding values for `COc1cc(-c2nc(Nc3ccc(S(N)(=O)=O)cc3)sc2CO)cc(OC)n1` [SR-33797, 4-((4-(2,6-Dimethoxypyridin-4-yl)-5-(hydroxymethyl)thiazol-2-yl)amino)benzenesulfonamide] are 45 nM and “yes”. In the same order, the values of `Cc1cc(-c2nc(Nc3ccc(S(N)(=O)=O)cc3)sc2CO)cc(C)n1` [SR-33798, 4-((4-(2,6-Dimethylpyridin-4-yl)-5-(hydroxymethyl)thiazol-2-yl)amino)benzenesulfonamide] are 20 nM and “yes”. Turning to `CCOCc1sc(Nc2ccc(S(C)(=O)=O)cc2)nc1-c1ccnc(C)c1` [SR-35365, 5-(Ethoxymethyl)-4-(2-methylpyridin-4-yl)-N-(4-(methylsulfonyl)phenyl)thiazol-2-amine], the EC50 in data set [1] turned out to be 450 nM. As to `Cc1cc(-c2nc(Nc3ccc(S(C)(=O)=O)cc3)sc2C=O)ccn1` [SR-35367, 4-(2-Methylpyridin-4-yl)-2-((4-(methylsulfonyl)phenyl)amino)thiazole-5-carbaldehyde], the EC50 in data set [1] is 230 nM. On to `CCN(c1ccc(S(C)(=O)=O)cc1)c1nc(-c2ccnc(C)c2)cs1` [SR-35368, N-ethyl-4-(2-methylpyridin-4-yl)-N-(4-(methylsulfonyl)phenyl)thiazol-2-amine], for which the EC50 in data set [1] was 230 nM.

With `Cc1cc(-c2nc(Nc3ccc(S(C)(=O)=O)cc3)sc2COc2ccccc2)ccn1` [SR-35369, 4-(2-Methylpyridin-4-yl)-N-(4-(methylsulfonyl)phenyl)-5-(phenoxymethyl)thiazol-2-amine], the concentration giving a half-maximal response (EC50) in data set [1] is greater than 500 nM. Same read-out and setting: under `Cc1cc(-c2nc(Nc3ccc(S(C)(=O)=O)cc3)sc2COc2ccc(F)cc2)ccn1` [SR-35370, 5-((4-Fluorophenoxy)methyl)-4-(2-methylpyridin-4-yl)-N-(4-(methylsulfonyl)phenyl)thiazol-2-amine] stands greater than 500 nM. The same measure, in the same setting: the value for `Cc1cc(-c2nc(Nc3ccc(S(C)(=O)=O)cc3)sc2CSc2ccccc2)ccn1` [SR-35371, 4-(2-Methylpyridin-4-yl)-N-(4-(methylsulfonyl)phenyl)-5-((phenylthio)methyl)thiazol-2-amine] was greater than 500 nM; that for `CNS(=O)(=O)c1ccc(-c2csc(Nc3ccc(S(C)(=O)=O)c(C(F)(F)F)c3)n2)cc1` [SR-35734, N-methyl-4-(2-((4-(methylsulfonyl)-3-(trifluoromethyl)phenyl)amino)thiazol-4-yl)benzenesulfonamide] was 3 nM.

In general, EC50 refers to the concentration giving half of the maximal effect.
